We go through 65 compounds from ChEMBL document CHEMBL3988442, “University of Dundee, Small-Polar-MMV Screening Library” (2021).

Structures are written as SMILES.

The subject of one assay is Schistosoma mansoni. Put plainly: High throughput screening of compounds against Schistosoma mansoni motility. In kind it is functional. Set-up: dose or concentration left out as unconfirmed.
The nature of assay [1]: microbe, parasite or virus in culture. As to conditions: Mycobacterium tuberculosis, 72 h, read-out: pIC50 (converted).
A short description of assay [2]: microbe, parasite or virus in culture. As to conditions: Mycobacterium tuberculosis, 96 h, read-out: pIC50 (converted).

Regarding `CCCNC(=O)CSc1nnc2[nH]c(=O)cc(CC)n12`, the “Percent Effect” value in the assay with Schistosoma mansoni was -63.88%. Regarding `CCCNC(=O)Cn1nc(C(C)C)c2cnn(C(C)(C)C)c2c1=O`, the “Percent Effect” value in the assay with Schistosoma mansoni is -27.62%. In the case of `COc1ccc(Br)c(C(=O)NCC2CCN(C(=O)c3ccoc3)CC2)c1`, the “Percent Effect” value in the assay with Schistosoma mansoni is -63.91%. In the case of `O=C(NCCN1CCC(c2cccs2)CC1)Nc1cccs1`, the “Percent Effect” value with Schistosoma mansoni is -30.63%. In the case of `Cn1c(C(F)(F)F)nn(CCNC(=O)NCc2ccccc2)c1=O`, the “Percent Effect” value in the assay on Schistosoma mansoni is 16.6%.

With `CC(C)(C)C(=O)NCCn1ccc(-c2ccncc2)n1`, the “Percent Effect” value in the assay with Schistosoma mansoni is given as -55.77%. Same read-out and setting: to `CNC(=O)CS(=O)(=O)C1CCN(S(=O)(=O)C2CC2)CC1` belongs 7.856%; to `CNC(=O)CS(=O)(=O)C1CCN(S(=O)(=O)c2c(F)cccc2F)CC1`, -27.81%. Still for that read-out and setting: the same measure for `CNC(=O)CS(=O)(=O)C1CCN(S(=O)(=O)c2ccccc2Br)CC1`: -49.15%; for `COC(=O)c1sccc1NC(=O)C1CCCN1C(=O)c1ccco1` (configuration not stated): 1.887%; for `CC(Cn1cccn1)NC(=O)Nc1ccc(F)cc1` (configuration not stated): -15.2%.

For `CC1CCN(CCNC(=O)C2CCN(S(N)(=O)=O)CC2)CC1`, in the assay with Schistosoma mansoni, the “Percent Effect” value is reported as 6.276%. Take `CCC(C)NC(=O)Nc1ccc(CN2CCOC2=O)cc1` (configuration not stated): in the assay with Schistosoma mansoni, the “Percent Effect” value is reported as 3.949%. For the compound `Cc1ncsc1C(=O)N1CCCC(c2noc(C(C)C)n2)C1` (configuration not stated), the “Percent Effect” value with Schistosoma mansoni is reported as -12.34%. Still for that read-out and setting: the same measure for `CN(C)C(=O)CNC(=O)Nc1cccc(Cl)c1SC(F)F`: -29.89%; for `COc1ccccc1OCC(=O)Nc1ncccc1Cl`: -2.169%. Still for that read-out and setting: to `O=C(Nc1ccnc(OC2CCOC2)c1)c1cc(F)ccc1F` (configuration not stated) belongs -26.29%; to `COCCN(Cc1ccc(F)cc1Cl)C(=O)c1ccncc1`, -38.63%.

Take `O=C(c1ccc(Br)o1)N1CCN(Cc2ccc(OC(F)(F)F)cc2)CC1`: the IC50 was 27.8 µM in assay [1] and 40.6 µM in assay [2]. In the assay on Schistosoma mansoni, the “Percent Effect” value is 71.06%. For the compound `CCc1nc2n(n1)CC(Nc1cc(C)nc3ncnn13)CC2` (configuration not stated), the “Percent Effect” value with Schistosoma mansoni is given as -43.49%.

As for `O=C(Nc1cccnc1)N1CCC(n2ccc(C(F)(F)F)n2)CC1`, the IC50 in assay [1] is 1.07 µM; in assay [2], > 50.1 µM. Also, the “Percent Effect” value in the assay on Schistosoma mansoni is on record as -86.87%.

For the compound `c1csc(-c2nc(CN3CCCC3Cn3cncn3)co2)c1` (configuration not stated), the “Percent Effect” value with Schistosoma mansoni is listed as -94.11%. Turning to `Cc1nc(CN2CCCC(N(C)CCc3cccs3)C2)no1` (configuration not stated), the “Percent Effect” value in the assay with Schistosoma mansoni is reported as -59.95%.

In the case of `c1cc(C2CCCN2Cc2nnnn2C2CC2)cs1` (configuration not stated), the “Percent Effect” value in the assay on Schistosoma mansoni is -76.39%. Turning to `O=C1CCCCN1Cc1cccc(NC(=O)N2CCSCC2)c1`, in the assay on Schistosoma mansoni, the “Percent Effect” value came to 22.51%.

Take `COc1ccc(OC)c(CNCCc2cc(F)cc3c2OCOC3)c1`: the “Percent Effect” value in the assay with Schistosoma mansoni is listed as 89.81%. Consider `CCc1cnc(CN(C)C2CCN(CCS(C)(=O)=O)C2)o1` (configuration not stated), for which, in the assay with Schistosoma mansoni, the “Percent Effect” value is reported as -9.705%. The same measure, in the same setting: the same measure for `COC(=O)CS(=O)(=O)CCC(=O)N1CCCC1c1ccsc1` (configuration not stated): -22.42%; for `CC(C)c1n[nH]c(C2CN(C(=O)CCCn3cccn3)CCO2)n1` (configuration not stated): 21.88%. In the case of `O=C(CN1CCCC1Cn1cncn1)NC(C1CC1)C1CC1` (configuration not stated), the “Percent Effect” value with Schistosoma mansoni is given as -24.22%. `CCc1ncncc1C(=O)NCCN1CCC(C)CC1`: in the assay with Schistosoma mansoni, the “Percent Effect” value is -31.56%. As for `COc1ccccc1CC(=O)NCCCN1CCCC1C(=O)N(C)C` (configuration not stated), the “Percent Effect” value with Schistosoma mansoni is listed as -6.29%. Still for that read-out and setting: to `Cc1cc(NC(=O)CN2CCCC2c2noc(C3CC3)n2)no1` (configuration not stated) belongs -30.12%; to `C1CC1c1nsc(N2CCN(C3CC3)CC2)n1`, -51.78%.

For the compound `OCC1CCCN1c1cc(NCCc2c[nH]c3ccccc23)ncn1` (configuration not stated), the values for the IC50 in assay [1] and in assay [2] were 21.4 µM and 12.9 µM, respectively. Further, the “Percent Effect” value in the assay with Schistosoma mansoni is given as 50.05%. `Cc1nc(C)n(CC2CCCN2CC(=O)NCc2ccco2)n1` (configuration not stated): in the assay with Schistosoma mansoni, the “Percent Effect” value is listed as -29.3%. Still for that read-out and setting: the same measure for `CNC(=O)C(C)(C)NC(=O)c1cc(OCC2CCC2)cc(C(=O)OC)c1`: -68.4%; for `CCCNC(=O)N1CCC(Oc2cc(C)ccc2F)(C(=O)O)CC1`: 27.97%. Turning to `CN(C)Cc1nnc(C2CCN(c3nccc(N)n3)CC2)n1C1CC1`, the “Percent Effect” value with Schistosoma mansoni is on record as -22.89%. For the compound `CC(C)NC(=O)[C@@H]1C[C@H](N)CN1C(=O)c1cc2c([nH]c1=O)CCCC2`, the “Percent Effect” value in the assay with Schistosoma mansoni was -18.08%.

With `CCCC(C)CN1CCC(n2cc(CCCO)nn2)CC1` (configuration not stated), the “Percent Effect” value with Schistosoma mansoni is reported as -31.48%.

`CCN1CC2(CCC1=O)CCN(C(=O)c1ccc(Cl)cc1O)CC2`: in the assay with Schistosoma mansoni, the “Percent Effect” value was -8.652%. The same measure, in the same setting: the same measure for `Cc1cc(CC(=O)N2CCN(CC3CC3)[C@@H]3CS(=O)(=O)C[C@@H]32)ccc1F`: 11.19%. On the same count and under the same terms, to `Cc1cc(C[C@@H]2COC[C@@H]2NC(=O)CN2CCCN(C)CC2)on1` belongs -19.51%; to `O=C(Nc1ccc(F)cc1)N1C[C@H]2CC[C@@H]1CN(Cc1cccnc1)C2`, -3.001%. On the same count and under the same terms, to `Cc1cc(-c2nnc(SCC(=O)O)n2C(C)c2ccccc2)nn1C` (configuration not stated) belongs -38.23%; to `COc1cccc(OCc2cc(C(=O)NC[C@H]3CCCN3)n[nH]2)c1`, -4.692%. `COc1cc(CN2CCN(c3cccc(OC)c3)C(=O)C2)cc(OC)c1`: the “Percent Effect” value with Schistosoma mansoni was -47.17%. Still for that read-out and setting: to `O=C(c1cc(=O)[nH]c(=O)[nH]1)N1CCCCC1c1ccc(F)cc1` (configuration not stated) belongs -6.768%. For the compound `COc1ccccc1[C@@H]1CN(Cc2cc(C(C)(C)C)[nH]n2)C[C@H]1C(=O)O`, the “Percent Effect” value in the assay on Schistosoma mansoni came to 42.17%. On the same count and under the same terms, to `CC(C)NC(=O)[C@@H]1C[C@H](N)CN1C(=O)c1cc2ccccc2[nH]c1=O` belongs -4.577%. On to `CCc1cc(N[C@H]2CC[C@H](O)CC2)n2nc(C)c(C)c2n1`, for which the “Percent Effect” value in the assay with Schistosoma mansoni came to 12.6%. Regarding `CC(CN1CCOCC1)NCC1CCN(c2cnn(C)c(=O)c2)CC1` (configuration not stated), the “Percent Effect” value in the assay on Schistosoma mansoni was determined as 33.93%. On the same count and under the same terms, the same measure for `COc1ccccc1[C@@H]1CN(C(=O)c2csc(C)n2)C[C@H]1C(=O)O`: 18.41%. Consider `CCc1ccccc1CN1CC[C@@H](NC(=O)c2cccnc2)[C@H](O)C1`, for which the “Percent Effect” value in the assay with Schistosoma mansoni was -49.14%. On the same count and under the same terms, to `O=C(CCc1ccc(=O)[nH]n1)N1CCCC(COc2ccc(F)cc2)C1` (configuration not stated) belongs 4.924%. Still for that read-out and setting: the same measure for `CC(C)N1CCC(N2CCN(C3CCC3)CC2CCO)CC1` (configuration not stated): 7.869%; for `CCN(c1ccc(C(=O)N2CCCC2)cc1)S(=O)(=O)CC`: 5.771%; for `CC(COc1ccccc1)NCc1nc(-c2cccnc2)no1` (configuration not stated): -35.35%. Turning to `Cc1cc(C(=O)N2CCC(c3nccn3Cc3ccncc3)CC2)no1`, the “Percent Effect” value in the assay with Schistosoma mansoni was -48.3%. Turning to `CN(CCN1CCCCC1)C(=O)c1cc(CN2CCOCC2)on1`, the “Percent Effect” value with Schistosoma mansoni is given as -21.55%. `O=C(NC1CCCC1)N1CCCC(c2nccn2Cc2ccncc2)C1` (configuration not stated): in the assay on Schistosoma mansoni, the “Percent Effect” value is recorded as -2.761%. In assay [2], the IC50 is > 50.1 µM. `CC[C@@]1(O)CCN(C(=O)c2ccsc2)C[C@H]1O`: the “Percent Effect” value in the assay with Schistosoma mansoni is reported as -27.08%.

For `CC(C)C(=O)NCCNc1nccc(-c2cc(C(=O)O)ccn2)n1`, the “Percent Effect” value in the assay with Schistosoma mansoni worked out at 19.02%. On to `Cl.Cl.OC(CN1CCN(Cc2ccc(F)c(F)c2)CC1)C1CC1` (configuration not stated), for which, in the assay with Schistosoma mansoni, the “Percent Effect” value is reported as -57.04%.
